The values that follow come from patent publication US20240293326A1, “CONTROLLED RELEASE FORMULATIONS FOR THE TREATMENT OF MALARIA” (KARICI DIAGNOSTICS INC., priority 2018, published 2024).

A short description of series [1]: Dissolution assay of tablets (release kinetics, SGF 2 h then SIF). The class given is physicochemical. How it is done:
Dissolution assays of formulated monolithic tablets were done in simulated gastric fluid (SGF, pH 1.5) for 2 h and continued in simulated intestinal fluid (SIF, pH 6.8) as referred by USP method 40 (USP, 2017a).
The Pf (Pf, MD/Pf or CMS-Pf) release kinetics from different formulations (Pf, MD/Pf and CMS-Pf monolithic tablet dosage form) were recorded at 100 rpm and 37° C. using a Distek dissolution system 2100A (Betatek Inc., Markham, ON, Canada). At predetermined intervals, an established volume of samples (1 mL) was withdrawn from dissolution media, filtered (0.45 μm) and the released Pf was quantified by UV measurement at 280 nm.
CMS-Pf complexes were prepared as detailed above in Example 1. Briefly, CMS was dispersed at 8.5% in water. After homogenization and obtaining a homogenous suspension, an amount of 50 mL of CMS suspension was slowly added in 450 ml of Pf 21.5% previously dissolved in ethanol (60%). Similar operation was carried out for the CMS and for CMC (high viscosity) with a degree of substitution of 0.8. The final ratio Pf/carboxyl polymer (w/w) was respectively about of 96/4. The solutions were maintained under agitation at room temperature until spray-drying to obtain powders using the following parameters: 1) inlet temperature 150° C.; 2) outlet temperature 100° C.; 3) spray flow 500 L/h, and 4) aspirator setting at 38 m^3/h. During the drying process, the polymeric excipient/Pf suspension was continuously gently stirred to prevent sedimentation. The resulting powder was used to prepare monolithic tablets (12.5 mm diameter, 3.0 mm thickness) containing 400 mg of Pf by direct compaction. The kinetics of the drug release were recorded using the Distek™ dissolution (100 rpm) and the detection of Pf was monitored at 280 nm, first in a dissolution medium made of 1 L of SGF (pH 1.5) during 2 h. Then, the tablets were transferred in 1 L of SIF (pH 7.2) at 37° C.) (USP 32 method).
For each tablet, the dissolution was started in 1 L of SGF (pH 1.5) for 2h and followed in 1 L of SIF (pH 7.2) at 37° C., according to USP 32. The drug release kinetics were recorded using a Distek™ dissolution 2100A paddle system at 100 rpm.
The quantification of Pf was carried out at 280 nm, whereas the dosage of artemisinin was realized by spectrophotometry at 734 nm after filtration and dissolving artemisinin in the acetone/water (ratio 40:60) solvent containing ABTS (2,2′-azino-bis[3-ethylbenzothiazoline-6-sulphonate]).
Dissolution assay was done first in simulated gastric fluid (SGF, pH 1.5) for 2 h and then in simulated intestinal fluid (SIF, pH 6.8) as referred by USP method 40 (2017a). Release kinetics from different formulations were followed at 100 rpm and 37° C. using a Distek dissolution system 2100A (Betatek Inc., Markham, ON, Canada) with a Distek TCS 0200 (North Brunswick, NJ, USA). At predetermined intervals (0.5, 1, 2, 4, 6, 8 and10 h), released Pf and Arte were quantified using the appropriate method (described above).
For Pf dosage, a volume (5 mL) was withdrawn from dissolution media, properly filtered (0.45 μm) and diluted before absorbance measurement at 280 nm. To quantify released Arte, the insoluble precipitate was recuperated, washed several times to remove all Pf residues and quantified as previously described.
Dissolution assays was followed for each tablet first in simulated gastric fluid (SGF, pH 1.5) for 2 h and then continued in simulated intestinal fluid (SIF, pH 6.8) as referred by USP method 40 (USP, 2017c). Release kinetics from both formulation types (containing CMP-Pf or pCMC-Pf) were followed using a Distek dissolution system 2100A (Betatek Inc., Markham, ON, Canada) with a Distek TCS 0200 (North Brunswick, NJ, USA) at 100 rpm and 37° C. At predetermined intervals (0.5, 1, 2, 4, 6, 8, 10 and 12 h), released Pf and Arte from tablets were quantified by absorbancy at 280 nm (for Pf) and at 734 nm (for Arte, using ABTS•+ radical as probe reagent). […]

A short description of series [2]: In vitro Arte and Pf interaction / stability in SGF (FTIR, NMR, antioxidant capacity). The class given is physicochemical. The note with it: SGF pH 1.5, 37° C., 2 h, one agent in the presence of the other. The method, then: Since both bioactive agents, Art and Pf will be used in a combination therapy in the same dosage form, there is a risk of molecular interactions to be considered. […] These interactions could also cause a moderate loss of activity due to the partial degradation of the endoperoxide bridge of artemisinin. […] After incubation, Arte was separated from Pf by decantation, washed and dried before FTIR and RMN analyses; whereas the Pf solution (in presence or not of Arte) was filtered and the antioxidant capacity was evaluated as previously described in the section of antioxidant properties. In vitro interaction of Arte with CMC-Pf was evaluated in SGF. Arte and CMC-Pf were incubated in SGF (pH 1.5, at 37° C.) separately or one in the presence of each other (FIG. 31).

Setting [3] is: monolithic tablets with CMC-Pf or pCMC-Pf, Example 6.

In the case of `C[C@@H]1CC[C@H]2[C@@H](C)C(=O)O[C@@H]3O[C@@]4(C)CC[C@@H]1[C@]32OO4` [Artemisinin], in series [1] (bi-layer tablet, Artemisinin 100 mg + Explotab layer, Example 3), the “Time to completed release of Artemisinin” value turned out to be 60 min. The “Art released after 2 h in SGF” value in series [1] (monolithic tablet, 400 mg CMC/Pf + 100 mg artemisinin, Example 4) is on record as “about 45%”. The “Time to complete release of Arte” value in series [1] (monolithic tablet, in SIF, Example 5) is 8 h; in series [1] (setting [3]), 8 h. Besides, the “Time to complete release of Art” value in series [1] (monolithic tablet, Example 4) is given as 8 h. The “Arte released after 2 h in SGF” value was “about 51%” in series [1] (monolithic tablet, Example 5) and “about 51%” in series [1] (setting [3]). For the same compound, the “Degradation in SGF (FTIR, 1H NMR)” value in series [2] (listed as Arte) was “No degradation”; in series [2] (listed as artemisinin), “no degradation”.
